In the supplement of paper PMC4862054:

Key:
Conditions in all cases: incubation time: 72 h
BT-474 [1] = experiment: normalised response (% of control), CellTox Green; higher = less cell death (100 = DMSO, 0 = benzethonium chloride kill control)
How it was run: (§1)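 Compound was dispensed into 384-well plates at 5 concentrations in 10-fold steps spanning a 10,000-fold range specific to that compound. Breast cancer cell lines were added as 20 µl suspension and left for 72 h before CellTox Green fluorescence (485/520 nm) and then CellTiter-Glo luminescence, read after 10 min at room temperature. Each reported value is the normalised signal at one concentration, with 0.1 % DMSO set at 100 and a positive kill control at 0 on each plate.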

BT-549 [2] = experiment: as above
How it was run: as §1

CAL-120 [3] = experiment: as above
How it was run: as §1

CAL-148 [4] = experiment: as above
How it was run: as §1

CAL-51 [5] = experiment: as above
How it was run: as §1

CAL-85-1 [6] = experiment: as above
How it was run: as §1

DU-4475 [7] = experiment: as above
How it was run: as §1

HCC1143 [8] = experiment: as above
How it was run: as §1

HCC1599 [9] = experiment: as above
How it was run: as §1

HCC1937 [10] = experiment: as above
How it was run: as §1

Hs578T [11] = experiment: as above
How it was run: as §1

MCF-10A [12] = experiment: as above
How it was run: as §1

MDA-MB-231 [13] = experiment: as above
How it was run: as §1

MDA-MB-436 [14] = experiment: as above
How it was run: as §1

MDA-MB-453 [15] = experiment: as above
How it was run: as §1

MDA-MB-468 [16] = experiment: as above
How it was run: as §1

MFM-223 [17] = experiment: as above
How it was run: as §1

BT-474 [18] = experiment: normalised response (% of control), CellTiter-Glo; higher = more viable cells (100 = DMSO, 0 = benzethonium chloride kill control)
How it was run: as §1

BT-549 [19] = experiment: as above
How it was run: as §1

CAL-120 [20] = experiment: as above
How it was run: as §1

CAL-148 [21] = experiment: as above
How it was run: as §1

CAL-51 [22] = experiment: as above
How it was run: as §1

CAL-85-1 [23] = experiment: as above
How it was run: as §1

DU-4475 [24] = experiment: as above
How it was run: as §1

HCC1143 [25] = experiment: as above
How it was run: as §1

HCC1599 [26] = experiment: as above
How it was run: as §1

HCC1937 [27] = experiment: as above
How it was run: as §1

HDQ-P1 = experiment: as above
How it was run: as §1

Hs578T [28] = experiment: as above
How it was run: as §1

MCF-10A [29] = experiment: as above
How it was run: as §1

MDA-MB-231 [30] = experiment: as above
How it was run: as §1

MDA-MB-436 [31] = experiment: as above
How it was run: as §1

MDA-MB-453 [32] = experiment: as above
How it was run: as §1

MDA-MB-468 [33] = experiment: as above
How it was run: as §1

MFM-223 [34] = experiment: as above
How it was run: as §1

SK-BR-3 = experiment: as above
How it was run: as §1

SMILES	normalised response (BT-474 [1])	normalised response (BT-549 [2])	normalised response (CAL-120 [3])	normalised response (CAL-148 [4])	normalised response (CAL-51 [5])	normalised response (CAL-85-1 [6])	normalised response (DU-4475 [7])	normalised response (HCC1143 [8])	normalised response (HCC1599 [9])	normalised response (HCC1937 [10])	normalised response (Hs578T [11])	normalised response (MCF-10A [12])	normalised response (MDA-MB-231 [13])	normalised response (MDA-MB-436 [14])	normalised response (MDA-MB-453 [15])	normalised response (MDA-MB-468 [16])	normalised response (MFM-223 [17])	normalised response (BT-474 [18])	normalised response (BT-549 [19])	normalised response (CAL-120 [20])	normalised response (CAL-148 [21])	normalised response (CAL-51 [22])	normalised response (CAL-85-1 [23])	normalised response (DU-4475 [24])	normalised response (HCC1143 [25])	normalised response (HCC1599 [26])	normalised response (HCC1937 [27])	normalised response (HDQ-P1)	normalised response (Hs578T [28])	normalised response (MCF-10A [29])	normalised response (MDA-MB-231 [30])	normalised response (MDA-MB-436 [31])	normalised response (MDA-MB-453 [32])	normalised response (MDA-MB-468 [33])	normalised response (MFM-223 [34])	normalised response (SK-BR-3)
O=C(O)CCCCC(CCSCc1ccccc1)SCc1ccccc1 (stereo not given) [CPI-613] (1000 nM)	98.6%	92.6%	102%	94.6%	111%	96.8%	100%	58.7%	95.5%	117%	103%	92.8%	109%	81.4%	103%	114%	98.7%	98.5%	102%	98.1%	100%	114%	97.1%	99.1%	102%	108%	101%	102%	106%	103%	102%	99.5%	103%	108%	108%	100%
Nc1ncn([C@H]2C[C@H](O)[C@@H](CO)O2)c(=O)n1 [Decitabine] (1000 nM)	98.6%	116%	93.6%	103%	77.8%	89.9%	97.4%	80.5%	101%	110%	112%	78.9%	121%	100%	84.1%	115%	93.6%	90.3%	77.8%	91.7%	83.5%	83.6%	105%	90.1%	90.4%	103%	87.9%	93.2%	93%	93.5%	98.4%	97.3%	112%	26.2%	96.5%	85.5%
COc1cc2c(NC3CCN(C(C)C)CC3)nc(C3CCCCC3)nc2cc1OCCCN1CCCC1 [UNC0638] (1000 nM)	91.6%	81.2%	100%	93%	78.5%	94.4%	91.6%		89.1%	92.1%	92.6%	104%	81.7%	92.5%	95.8%	143%	95.7%	92.4%	91.6%	92.8%	88.9%	71.4%	106%	92.1%	93.3%	82.1%	89.9%	95.6%	103%	76.7%	92%	91.3%	90.6%	78.8%	83.6%	84.6%
CCCCC(=O)OCC(=O)[C@]1(O)Cc2c(O)c3c(c(O)c2[C@@H](O[C@H]2C[C@H](NC(=O)C(F)(F)F)[C@H](O)[C@H](C)O2)C1)C(=O)c1c(OC)cccc1C3=O [Valrubicin] (0.5 nM)																		104%	97.1%	95.2%	94%	87.8%	98.2%	99.8%	102%	97.2%	98.3%	101%	96%	111%	99.6%	98.4%	94.2%	99.1%	102%	97.9%
O=C(/C=C/c1cccnc1)NCCCCC1CCN(C(=O)c2ccccc2)CC1 [Daporinad] (0.1 nM)																		106%	98.4%	101%	101%	112%	101%	103%	94%	108%	101%	98.4%	96.3%	102%	101%	101%	102%	96.9%	109%	108%
